In patent US12646341B2, “Image processing method and image processing program” (TOPPAN Inc., priority 2020, dated 2026):

System: vascular network structure of 3D hepatic model (PXB cells, SEC, Lx2)
Description: The vascular network structure of the cell structure becomes visible by subjecting the 3D hepatic model to immunostaining, fluorescent modification, or a combination of immunostaining and fluorescent modification.
The preparation process may include, for example, a first collection process of collecting cells other than fresh human hepatocytes isolated from chimeric mice with human hepatocytes (PXB cell) shown in Table 1, a second collection process of collecting PXB cells, a mixture obtaining process of obtaining a cell mixture, a suspension obtaining process of obtaining a cell suspension, a gel formation process of forming a fibrin gel, and a model obtaining process of obtaining a 3D model.
In the mixture obtaining process, for example, the cells collected in the first collection process and the second collection process are mixed so that a total quantity of cells per well becomes 30,000 cells at the cell ratios of PXB cells, SEC and Lx2 in the tissue of 65%, 25% and 10%, respectively, to obtain a cell mixture (an example of cell structure). The cell mixture contains multiple types of cells including vascular endothelial cells and other stromal cells.
In the suspension obtaining process, first, for example, a heparin-collagen solution is prepared by mixing equal amounts of a 1.0 mg/ml heparin solution (buffer: 100 mM Tris-HCL) and a 0.3 mg/ml collagen solution (buffer: 5 mM acetate). Then, 100 μL of the heparin-collagen solution prepared as described above is added to each cell mixture obtained in the mixture obtaining process, and the mixture is suspended until the cells are no longer visually observable and then centrifuged (400 g×2 min) to obtain a viscous solution. After the supernatant is removed from the viscous solution, a solvent is added to the viscous solution so that the final volume of the viscous solution becomes the solution amount of [the number of wells to be seeded]×2 μL. Thus, a cell suspension is obtained. […]

O=P1(N(CCCl)CCCl)NCCCO1 (stereo not drawn) [cyclophosphamide]
length of the vascular network structure in the captured images (FIGS. 9A-9F, dosage concentration 0 M, 143 M, 430 M, 1430 μM, 4300 μM and 14300 M): the higher the dosage concentration of cyclophosphamide, the smaller the length of the vascular network structure
skeleton length in the extracted images (FIGS. 9G-9L, dosage concentration 0 M, 143 M, 430 M, 1430 μM, 4300 μM and 14300 M): the higher the dosage concentration of cyclophosphamide, the smaller the skeleton length
shape of the vascular network structure (skeleton length and number of branch points in the extracted images) (FIGS. 10A and 10B, against dosage concentration): the shape of the vascular network structure significantly changes and the vascular network structure decreases when the dosage concentration of cyclophosphamide exceeds a certain level
